Source: patent US20250032625A1, “HETEROBIFUNCTIONAL MOLECULES AS TEAD INHIBITORS” (Merck Patent GmbH, priority 2021, published 2025)
Where two headings read alike, the source gives them in different places.

Assays:
TEAD1 in SK-HEP1 cells = TEAD1 in SK-HEP1 cells (Homo sapiens (Human), UniProt P28347); assay: TEAD degradation in SK-HEP1 cell line (immunofluorescence); format: cell-based
Procedure: (§1) Degradation of TEAD isoform TEAD1 by exemplary compounds which has been determined at different time points in two different cell lines, SK-HEP1 and NCI-H226: For the assay, SK-HEP1 (ATCC HTB-52) and NCI-H226 (ATCC CRL-5826) cells were treated in duplicates with the test compounds in a 10-point dose, 1:3 dilution steps, with the top concentration starting at 30 uM (final concentration in assay). After either 16 or 24 hour incubation at 37° C., 95% rH, and 5% CO2, the cells were fixed with 4% PFA and TEAD1 levels were probed using immunofluorescence. The primary antibody used was Anti-TEF1 (BD, 610293) and the secondary antibody used was Alexa Fluor® 488 Goat Anti-Mouse IgG (H+L) (Molecular Probes, A-11001). Finally, the cell nuclei were co-stained by Hoechst 33258 (Invitrogen, H-3569) and imaged using a high content imager. The amount of TEAD degradation was determined by quantifying the fluorescence intensity levels of Anti-TEF1 in each individual cell per well. DC50 was calculated using curve fitting software Genedata Screener. Cell media: The SK-HEP1 cells were cultured in the following media: MEM, +10% FCS, +1× GlutaMAX, +100 μM NEAA, +10 mM HEPES, +0.5% Pen/Strep. The NCI-H226 cells were cultured in the following media: RPMI 1640, +10% FBS, +1× GlutaMAX, +10 mM HEPES, +0.5% Pen/Strep.

TEAD1 in NCI-H226 cells = TEAD1 in NCI-H226 cells (Homo sapiens (Human), UniProt P28347); assay: TEAD degradation in NCI-H226 cell line (immunofluorescence); format: cell-based
Sequence of TEAD1 in NCI-H226 cells (P28347 whole entry): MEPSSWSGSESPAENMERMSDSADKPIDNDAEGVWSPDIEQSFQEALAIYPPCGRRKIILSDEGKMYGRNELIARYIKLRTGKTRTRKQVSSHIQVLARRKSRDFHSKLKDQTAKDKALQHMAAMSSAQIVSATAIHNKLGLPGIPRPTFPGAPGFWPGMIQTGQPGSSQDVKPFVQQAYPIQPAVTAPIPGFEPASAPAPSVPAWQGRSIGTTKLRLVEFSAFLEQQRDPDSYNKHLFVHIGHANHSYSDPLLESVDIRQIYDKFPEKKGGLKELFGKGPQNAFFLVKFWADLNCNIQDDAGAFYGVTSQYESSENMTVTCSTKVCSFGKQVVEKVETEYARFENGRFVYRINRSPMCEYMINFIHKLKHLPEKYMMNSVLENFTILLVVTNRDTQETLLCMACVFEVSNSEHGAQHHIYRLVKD
Procedure: as §1

[1] = 24 h incubation, read-out: DC50 SK-HEP1 24 h
[2] = 24 hours, ranges, read-out: DC50 SK-HEP1
[3] = 24 h incubation, read-out: DC50 NCI-H226 24 h
[4] = 24 hours, ranges, read-out: DC50 NCI-H226

Sequence of TEAD1 in SK-HEP1 cells (P28347 whole entry, canonical isoform): as the sequence (P28347 whole entry) above

| SMILES | DC50 (TEAD1 in SK-HEP1 cells; [1]) | DC50 (TEAD1 in SK-HEP1 cells; [2]) | DC50 (TEAD1 in NCI-H226 cells; [3]) | DC50 (TEAD1 in NCI-H226 cells; [4]) |
| --- | --- | --- | --- | --- |
| Cn1cc2c3cc(C(=O)NCCOCCOCCOCCOCCNc4cccc5c4C(=O)N(C4CCC(=O)NC4=O)C5=O)ccc3n(-c3ccc(C(F)(F)F)cc3)c2n1 (stereo not shown) [Compound 28, N-(14-{[2-(2,6-dioxopiperidin-3-yl)-1,3-dioxo-2,3-dihydro-1H-isoindol-4-yl]amino}-3,6,9,12-tetraoxatetradecan-1-yl)-2-methyl-8-[4-(trifluoromethyl)phenyl]-2H,8H-pyrazolo[3,4-b]indole-5-carboxamide] | 0.07 µM | < 0.1 µM | 0.09 µM | < 0.1 µM |
| Cn1cc2c3cc(C(=O)NCCOCCOCCOCCOCCNC(=O)COc4ccc5c(c4)CCCN5C(=O)CCl)ccc3n(-c3ccc(C(F)(F)F)cc3)c2n1 [Compound 31, 2-{[1-(2-chloroacetyl)-1,2,3,4-tetrahydroquinolin-6-yl]oxy}-N-[14-({2-methyl-8-[4-(trifluoromethyl)phenyl]-2H,8H-pyrazolo[3,4-b]indol-5-yl}formamido)-3,6,9,12-tetraoxatetradecan-1-yl]acetamide] | 3.5 µM | 3 to 9 µM | 10 µM | 9 to 30 µM |
| Cc1ncsc1-c1ccc(CNC(=O)[C@@H]2C[C@@H](O)CN2C(=O)[C@@H](NC(=O)COCCOCCOCCOCCOCCOCCNC(=O)c2ccc3c(c2)c2cn(C)nc2n3-c2ccc(C(F)(F)F)cc2)C(C)(C)C)cc1 [Compound 32, (2S,4R)-1-[(2S)-3,3-dimethyl-2-[20-({2-methyl-8-[4-(trifluoromethyl)phenyl]-2H,8H-pyrazolo[3,4-b]indol-5-yl}formamido)-3,6,9,12,15,18-hexaoxaicosanamido]butanoyl]-4-hydroxy-N-{[4-(4-methyl-1,3-thiazol-5-yl)phenyl]methyl}pyrrolidine-2-carboxamide] | 1.1 µM | 1 to 3 µM |  | 1 to 3 µM |
| Cn1cc2c3cc(C(=O)NCCOCCOCCOCCOCCNC(=O)[C@]45CCC(C)(C)C[C@H]4[C@H]4C(=O)C=C6[C@@]7(C)C=C(C#N)C(=O)C(C)(C)[C@@H]7CC[C@@]6(C)[C@]4(C)CC5)ccc3n(-c3ccc(C(F)(F)F)cc3)c2n1 [Compound 33, (4aS,6aR,6bS,8aR,12aS, 14aR, 14bS)-11-cyano-2,2,6a,6b,9,9,12a-heptamethyl-N-[14-({2-methyl-8-[4-(trifluoromethyl)phenyl]-2H,8H-pyrazolo[3,4-b]indol-5-yl}formamido)-3,6,9,12-tetraoxatetradecan-1-yl]-10,14-dioxo-1,2,3,4,4a,5,6,6a,6b,7,8,8a,9,10,12a,14,14a,14b-octadecahydropicene-4a-carboxamide] | 0.65 µM | 0.1 to 1 µM | 0.6 µM | 0.1 to 1 µM |
| Cc1ncsc1-c1ccc(CNC(=O)[C@@H]2C[C@@H](O)CN2C(=O)[C@@H](NC(=O)CCCCCc2cn(CCCCCCCNC(=O)c3ccc4c(c3)c3cn(C)nc3n4-c3ccc(C(F)(F)F)cc3)nn2)C(C)(C)C)cc1 [Compound 34, (2S,4R)-1-[(2S)-3,3-dimethyl-2-(6-{1-[7-({2-methyl-8-[4-(trifluoromethyl)phenyl]-2H,8H-pyrazolo[3,4-b]indol-5-yl}formamido)heptyl]-1H-1,2,3-triazol-4-yl}hexanamido)butanoyl]-4-hydroxy-N-{[4-(4-methyl-1,3-thiazol-5-yl)phenyl]methyl}pyrrolidine-2-carboxamide] |  | 0.1 to 1 µM |  | 0.1 to 1 µM |
| Cc1ncsc1-c1ccc(CNC(=O)[C@@H]2C[C@@H](O)CN2C(=O)[C@@H](NC(=O)CCCCCc2cn(CCCCCCNC(=O)c3ccc4c(c3)c3cn(C)nc3n4-c3ccc(C(F)(F)F)cc3)nn2)C(C)(C)C)cc1 [Compound 35, (2S,4R)-1-[(2S)-3,3-dimethyl-2-(6-{1-[6-({2-methyl-8-[4-(trifluoromethyl)phenyl]-2H,8H-pyrazolo[3,4-b]indol-5-yl}formamido)hexyl]-1H-1,2,3-triazol-4-yl}hexanamido)butanoyl]-4-hydroxy-N-{[4-(4-methyl-1,3-thiazol-5-yl)phenyl]methyl}pyrrolidine-2-carboxamide] |  | < 0.1 µM |  | < 0.1 µM |
| Cc1ncsc1-c1ccc(CNC(=O)[C@@H]2C[C@@H](O)CN2C(=O)[C@@H](NC(=O)CCCCCc2cnnn2CCCCCCCNC(=O)c2ccc3c(c2)c2cn(C)nc2n3-c2ccc(C(F)(F)F)cc2)C(C)(C)C)cc1 [Compound 37, (2S,4R)-1-[(2S)-3,3-dimethyl-2-(6-{1-[7-({2-methyl-8-[4-(trifluoromethyl)-phenyl]-2H,8H-pyrazolo[3,4-b]indol-5-yl}formamido)heptyl]-1H-1,2,3-triazol-5-yl}hexanamido)butanoyl]-4-hydroxy-N-{[4-(4-methyl-1,3-thiazol-5-yl)phenyl]methyl}pyrrolidine-2-carboxamide] |  | 0.1 to 1 µM |  | 0.1 to 1 µM |

Results, then the compound that gave them:

| DC50 (TEAD1 in SK-HEP1 cells; [1]) | DC50 (TEAD1 in SK-HEP1 cells; [2]) | DC50 (TEAD1 in NCI-H226 cells; [3]) | DC50 (TEAD1 in NCI-H226 cells; [4]) | SMILES |
| --- | --- | --- | --- | --- |
|  | 0.1 to 1 µM |  | 0.1 to 1 µM | Cc1ncsc1-c1ccc([C@H](C)NC(=O)[C@@H]2C[C@@H](O)CN2C(=O)[C@@H](NC(=O)CCCCCc2cnnn2CCCCCCCNC(=O)c2ccc3c(c2)c2cn(C)nc2n3-c2ccc(C(F)(F)F)cc2)C(C)(C)C)cc1 [Compound 38, (2S,4R)-1-[(2S)-3,3-dimethyl-2-(6-{1-[7-({2-methyl-8-[4-(trifluoromethyl)-phenyl]-2H,8H-pyrazolo[3,4-b]indol-5-yl}formamido)heptyl]-1H-1,2,3-triazol-5-yl}hexanamido)butanoyl]-4-hydroxy-N-[(1S)-1-[4-(4-methyl-1,3-thiazol-5-yl)phenyl]ethyl]pyrrolidine-2-carboxamide] |
|  | < 0.1 µM |  | 0.1 to 1 µM | Cn1cc2c3cc(C(=O)NCCOCCOCCOCCOCCNc4ccc5c(c4)C(=O)N(C4CCC(=O)NC4=O)C5=O)ccc3n(-c3ccc(C(F)(F)F)cc3)c2n1 (stereo not shown) [Compound 42, N-(14-{[2-(2,6-dioxopiperidin-3-yl)-1,3-dioxo-2,3-dihydro-1H-isoindol-5-yl]amino}-3,6,9,12-tetraoxatetradecan-1-yl)-2-methyl-8-[4-(trifluoro-methyl)phenyl]-2H,8H-pyrazolo[3,4-b]indole-5-carboxamide] |
|  | 9 to 30 µM |  | 0.1 to 1 µM | Cn1cc2c3cc(C(=O)NCCOCCOCCOCCOCCNc4cccc5c4CN(C4CCC(=O)NC4=O)C5=O)ccc3n(-c3ccc(C(F)(F)F)cc3)c2n1 (stereo not shown) [Compound 43, N-(14-{[2-(2,6-dioxopiperidin-3-yl)-1-oxo-2,3-dihydro-1H-isoindol-4-yl]amino}-3,6,9,12-tetraoxatetradecan-1-yl)-2-methyl-8-[4-(trifluoromethyl)phenyl]-2H,8H-pyrazolo[3,4-b]indole-5-carboxamide] |
|  | 0.1 to 1 µM |  | < 0.1 µM | Cn1nc2c3cc(C(=O)NCCOCCOCCOCCOCCNc4cccc5c4C(=O)N(C4CCC(=O)NC4=O)C5=O)ccc3n(-c3ccc(C(F)(F)F)cc3)c2n1 (stereo not shown) [Compound 45, N-(14-{[2-(2,6-dioxopiperidin-3-yl)-1,3-dioxo-2,3-dihydro-1H-isoindol-4-yl]amino}-3,6,9,12-tetraoxatetradecan-1-yl)-2-methyl-4-[4-(trifluoromethyl)phenyl]-2H,4H-[1,2,3]triazolo[4,5-b]indole-7-carboxamide] |
|  | 0.1 to 1 µM |  | 0.1 to 1 µM | Cc1ccc2c(c1)c1cc(C(=O)NCCOCCOCCOCCOCCNc3cccc4c3C(=O)N(C3CCC(=O)NC3=O)C4=O)ccc1n2-c1ccc(C(F)(F)F)cc1 (stereo not shown) [Compound 46, N-(14-{[2-(2,6-dioxopiperidin-3-yl)-1,3-dioxo-2,3-dihydro-1H-isoindol-4-yl]amino}-3,6,9,12-tetraoxatetradecan-1-yl)-6-methyl-9-[4-(trifluoro-methyl)phenyl]-9H-carbazole-3-carboxamide] |
|  | < 0.1 µM |  | < 0.1 µM | Cn1cc2c3cc(C(=O)NCCOCCOCCOCCOCCOCCNc4cccc5c4C(=O)N(C4CCC(=O)NC4=O)C5=O)ccc3n(-c3ccc(C(F)(F)F)cc3)c2n1 (stereo not shown) [Compound 47, N-(17-{[2-(2,6-dioxopiperidin-3-yl)-1,3-dioxo-2,3-dihydro-1H-isoindol-4-yl]amino}-3,6,9,12,15-pentaoxaheptadecan-1-yl)-2-methyl-8-[4-(trifluoro-methyl)phenyl]-2H,8H-pyrazolo[3,4-b]indole-5-carboxamide] |
|  | 9 to 30 µM |  | < 0.1 µM | Cn1cc2c3cc(C(=O)NCCOCCOCCOCCNc4cccc5c4C(=O)N(C4CCC(=O)NC4=O)C5=O)ccc3n(-c3ccc(C(F)(F)F)cc3)c2n1 (stereo not shown) [Compound 50, N-(2-{2-[2-(2-{[2-(2,6-dioxopiperidin-3-yl)-1,3-dioxo-2,3-dihydro-1H-iso-indol-4-yl]amino}ethoxy)ethoxy]ethoxy}ethyl)-2-methyl-8-[4-(trifluoro-methyl)phenyl]-2H,8H-pyrazolo[3,4-b]indole-5-carboxamide] |
|  | 0.1 to 1 µM |  | 0.1 to 1 µM | Cc1ncsc1-c1ccc(CNC(=O)[C@@H]2C[C@@H](O)CN2C(=O)[C@@H](NC(=O)COCCOCCOCCNC(=O)c2ccc3c(c2)c2cn(C)nc2n3-c2ccc(C(F)(F)F)cc2)C(C)(C)C)cc1 [Compound 52] |
